Results as given in patent US20150225369A1, “DDR2 INHIBITORS FOR THE TREATMENT OF OSTEOARTHRITIS” (Merck Patent GmbH, priority 2012, published 2015).
Read-outs that look alike come from different tables or passages of the source.

Assays:
[1] = target: T1, His-tagged human recombinant DDR-2 kinase domain (His-TEV-DDR2 467-855 aa) (Homo sapiens, UniProt Q16832); experiment: Autophosphorylation assay for biochemical activity testing of DDR2 (HTRF); details: 4 nM DDR2 kinase domain, 150 μM ATP, 150 min at 22° C.
T1 construct: His-TEV-DDR2 467-855 aa
T1 sequence (Q16832 467-855): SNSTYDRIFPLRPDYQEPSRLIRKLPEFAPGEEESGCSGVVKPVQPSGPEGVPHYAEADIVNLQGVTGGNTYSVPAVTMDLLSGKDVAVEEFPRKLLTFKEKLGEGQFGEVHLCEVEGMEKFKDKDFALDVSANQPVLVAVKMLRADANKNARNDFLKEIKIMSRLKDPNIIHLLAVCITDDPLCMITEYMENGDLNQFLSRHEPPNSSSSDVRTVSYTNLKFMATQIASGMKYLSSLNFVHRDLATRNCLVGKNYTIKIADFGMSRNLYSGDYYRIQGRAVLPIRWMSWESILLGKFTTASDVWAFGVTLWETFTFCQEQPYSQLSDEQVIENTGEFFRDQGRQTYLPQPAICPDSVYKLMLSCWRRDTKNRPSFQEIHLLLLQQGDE
Method in brief: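 Phospho-tyrosine was detected by HTRF between XL665 anti-6His and cryptate anti-phosphotyrosine PT66 antibodies, using the emission ratio. Inhibition was referenced to the inhibitor-free reaction.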

[2] = test system: proMMP13 production by SW1353 cells; experiment: Production of MMP13 (proMMP13 ELISA) by SW1353 cells upon stimulation with collagen type II; type: cell-based; details: Homo sapiens, read-out: IC50 [pro-MMP13]
Experimental: The binding of Collagen type II to the DDR2 receptor of the SW1353 cells initiate a signalling cascade resulting in the increase of MMP13 expression. MMP13 is released in the culture medium in its pro-form, the proMMP13 which can be measured with an ELISA.
DDR2 inhibitors are evaluated for their ability to block this signalling cascade and therefore proMMP13 production upon collagen stimulation.
SW1353 cells (ATCC, HTB-94), conserved in liquid nitrogen, are thawed and cultivated at 1.6.10^6 cells in a T75 in RPMI1640 supplemented with 2 mM Glutamin, 1 mM Na-Pyruvate, 10% FCS, at 37° C., 5% CO2 for three days. SW1353 cells are then harvested with trypsin/EDTA and resuspended in RPMI1640 supplemented with 2 mM Glutamin, 1 mM Na-Pyruvate, 25 mM HEPES and 0.5% FCS (assay medium) and inoculated in a 96 well plate at 30 000 cells/well in 100 μL of the assay medium and further incubated 24 hours at 37°, 5% CO2 to enable cell adhesion. For stimulation of the DDR2 receptor, 50 μL of a collagen type II solution 160 μg/mL (final concentration in the well is 40 μg/mL) will be added in each well as well as 50 μL of the different dilutions of the inhibitors (MSCs) from 0.003 μM to 10 μM (final concentration in the plate). Each condition is performed in four-plicates. After three additional days of culture, the supernatant will be harvested for proMMP13 measurement.
The Different Controls Present on Each Plate are Composed of Assay Medium with: Positive control (with the reference compound): 40 μg/mL Collagen type II, 0.03 μM Dasatinib (reference compound) in 0.1% DMSO Negative control (no inhibition): 40 μg/mL Collagen type II and 0.1% DMSO Medium control (no stimulation): 0.005% Acetic acid and 0.1% DMSO All wells contains 0.1% DMSO and 0.005% acetic acid.
The solutions needed are: • Collagen type II is diluted at 2 mg/mL in 0.25% acetic acid. This stock solution can be stored at 4° C. for a week and is diluted 1/12.5 in the assay medium (to obtain 160 μg/mL in 0.02% acetic acid) before being used in the assay. • MSCs from 0.012 to 40 μM in assay medium with 0.4% DMSO (they are then further diluted ¼ in the assay plate) • Dasatinib 0.12 μM in assay medium with 0.4% DMSO (it is then further diluted ¼ in the assay plate) • Acetic acid 0.02% in assay medium (control).
The harvested supernatants are either directly used or stored at −20° C. until use. ProMMP13 is measured with a commercial ELISA kit, according the recommendation of the manufacturer (see Annex). Briefly, 50 μL of each samples are used undiluted and the standard curve is realised in the assay medium. At the end of the assay the ELISA plate is read on a Paradigm MTP-Reader (Beckman Coulter) at 540 (reference wavelength) and 450 nm. All the absorbance values obtained at 450 nm are corrected with the absorbance at 540 nm and a ‘Four Parameter Fit’ is used to establish the standard curve. From the standard curve the concentrations of proMMP13 in all the samples are calculated. All the calculations are realised by the Paradigm software.
The data reported in the database are the % effect of the compounds at the two highest concentrations (10 and 3 μM) as well as the IC50.
% effect at the two highest concentrations is calculated according to the formula: […]
The IC50s are calculated with the software Graph Pad Prism (see tables in Example 1).

[3] = 72 h, SW1353 cells, 40 μg/mL collagen type II, three days

SMILES | IC50 [1] | IC50 [2, 3] | IC50 ([2]; SW1353, 72 h)
CNC(=O)c1cc(Oc2ccc(CNC(=O)Nc3cc(C(F)(F)F)cn(C)c3=O)cc2)ccn1 [compound 8] | 97 nM |  | 14.8 nM
COc1ncc(C)cc1NC(=O)NCc1ccc(Oc2ccncc2)cc1 [compound 18] | 100 nM | 733 nM | 
CNC(=O)c1cc(Oc2ccc(CNC(=O)Nc3cc(Cl)cnc3OC)cc2C)ccn1 [compound 23] | 37 nM | 45.4 nM | 
CNC(=O)c1cc(Oc2ccc(CNC(=O)Nc3cc(C(F)(F)F)cnc3Cl)cc2C)ccn1 [compound 26] | 52 nM | 42.4 nM | 

Now from value to molecule, other results behind:

IC50 [1] | IC50 [2, 3] | SMILES | IC50 ([2]; SW1353, 72 h)
110 nM | 258 nM | Cc1cc(Oc2ccc(CNC(=O)Nc3cc(C(F)(F)F)cn(C)c3=O)cc2C)ccn1 [compound 6] | 
37 nM | 32.9 nM | CNC(=O)c1cc(Oc2ccc(CNC(=O)Nc3cc(C(F)(F)F)cn(C)c3=O)cc2C)ccn1 [compound 7] | 
63 nM | 155 nM | CNC(=O)c1cc(Oc2ccc(CNC(=O)Nc3cc(C)cnc3OC)cc2)ccn1 [compound 19] | 
44 nM | 69 nM | CNC(=O)c1cc(Oc2ccc(CNC(=O)Nc3cc(Cl)cnc3OC)cc2)ccn1 [compound 21] | 
110 nM | 348 nM | COc1ncc(Cl)cc1NC(=O)NCc1ccc(Oc2ccnc(C)c2)c(C)c1 [compound 28] | 
100 nM | 960 nM | Cc1cc(Oc2ccc(CNC(=O)Nc3cc(C(F)(F)F)cnc3Cl)cc2C)ccn1 [compound 30] | 
